Values of other authors as cited in patent US20250221949A1, “ANTISEPTIC, ANTISEBORRHEIC, EXFOLIATING COMPOSITION TO REMOVE OR PREVENT ACNE” (Excalibur Pharmaceuticals, Inc., priority 2012, published 2025).

Test system: Candida albicans, some Trichomonas, Staphylococcus aureus; Escherichia coli, Salmonella typhi, S. paratyphi, Shigella dysenterica and Vibro cholera species
Details: background statement

Which “in vitro activity against microorganisms (in words)” value does the source give for `C=CCS[S+]([O-])CC=C` (stereo not shown) [DDO, diallyl disulphide oxide] here?
The value was “has in vitro activity”.
